Results on one substance are retold here after patent publication US20120308554A1, “VEGF-D/VEGFR2/3-MEDIATED REGULATION OF DENDRITES” (UNIVERSITAT HEIDELBERG, priority 2011, published 2012).

Data set [1] deals with VEGFD, VEGF, VEGFC and VEGFR3. In words: qRT-PCR analysis of shRNA knock-down of VEGF family members. Type of data set: cell-based, mice. As to conditions: hippocampal neurons infected with rAAV. The method, then:
Total RNA was isolated at DIV10 to DIV13 from hippocampal primary neuron cultures or isolated brain tissues with Rneasy Mini Kit (Qiagen, Hilden, Germany) including an optional Dnase I treatment at room temperature for 15 min according to manufacturer's instructions (Qiagen). 1.2 μg of extracted RNA was reverse transcribed into first strand cDNA using High Capacity cDNA Reverse Transcription kit (Applied Biosystems, Foster City, Calif.). Quantitative reverse transcriptase PCR (qRT-PCR) was done on an ABI7300 thermal cycler using Universal qRT-PCR master mix with TaqMan Gene Expression Assays for the indicated genes (Applied Biosystems). The following TaqMan Gene Expression Assays were used in this study: Gusb (Mm00446953_m1), cFos (Mm00487425_m1), VEGFD (Mm00438965_m1), VEGFC (Mm01202432_m1), VEGF (Mm01281449_m1), VEGFR3 (Mm01292618_m1), beta-actin (Mm00607939_s1), beta-2 microglobulin (Mm00437762_m1), CBP (Mm01342435_m1), p38 MAPK alpha (Mm00442497_m1), p38 MAPK beta (Mm00440955_m1). Expression of target genes was normalized against the expression of Gusb as endogenous control gene. Data were derived from at least 5 independent experiments. For expression of shRNAs, an rAAV vector containing the U6 promoter for shRNA expression and a CaMKII promoter driving mCherry expression was used. Three different sequences were obtained from Open Biosystems ([…] 2 and […] 3), cloned and tested for silencing efficiency. […] As control, a scramble version of this sequence ([…] ID NO: 2) and the vector carrying only the mCherry ([…]) were used. Shp38alpha [NT] ID NO: 3), shp38beta [NT] ID NO: 4), […] ID NO: 5), […] ID NO: 6) and […] ID NO: 7; sequence obtained from Open Biosystems www.openbiosystems.com) were also cloned into the same vector. CBP expression level was knocked down using a pool of four short interfering RNAs (siRNAs) targeting mouse CBP (Accell siRNA SMARTpool; Thermo Scientific Dharmacon). The SMARTpool is a group of four siRNAs that have been screened to reduce a variety of potential off-target effects including the inclusion of miRNA (microRNA)-like seed motifs. Silencing of GAPDH was measured using Accell mouse GAPDH as a positive control, and as a negative control, a non-targeting Accell mouse siRNA pool was used. In addition, a fluorescently labeled non-targeting Accell mouse siRNA was also used to evaluate penetration efficiency in hippocampal neurons via immunocytochemistry. Briefly, 500 nM siRNAs were supplemented in the serum-free culturing medium at DIV8, and mRNA levels were analyzed at DIV13.
A general note: In qPCR the cycle at which signal appears reflects the starting amount.

For the next data set, the system named is C57BL/6 mice. The experiment in a line: Contextual fear conditioning. The class given is in vivo. Particulars: versus rAAV-shSCR. The method, then: (§1) rAAVs were delivered by stereotaxic injection into the right dorsal hippocampus of 2 months old male C57BL/6 mice. For the Golgi staining-based morphometric analysis, viral particles were unilaterally injected over a period of 20 min at the following coordinates relative to Bregma: anteroposterior, −2.1 mm; mediolateral, −1.4 mm; dorsoventral, −1.4 to −1.8 mm from the skull surface. For behavior experiments mice were injected bilaterally.
The behavioral experiments started three weeks after stereotaxic delivery of rAAVs. Mice were habituated to the experimental room and handled once a day for three consecutive days before testing started. Two different sets of mice were used for Morris water maze and contextual fear conditioning experiments. At the end of the experiments, virus infection was assessed.
On the training day, mice were placed into the conditioning chamber (23×23×35 cm; TSE, Bad Homburg, Germany) and received a 2 second, 0.5 mA scrambled foot shock 148 seconds after placement into the chamber. Mice were removed from the chamber 30 seconds after the shock. During testing, mice received one 5 minute exposure to the same context in the absence of foot shock 24 hours after conditioning. Freezing, defined as absence of movement except for respiration, was scored continuously during training and testing sessions.

Another data set concerns VEGFD. In words: Immunoblot analysis of VEGFD expression in hippocampal neurons. The class given is cell-based, mice. As to conditions: hippocampal neurons infected with rAAV. An excerpt: C: Immunoblot analysis of VEGFD expression in uninfected hippocampal neurons and in hippocampal neurons infected with the indicated rAAVs. Tubulin was used for loading control. Neurons infected with rAAV-emptymC, rAAV-shVEGFD and rAAV-shSCR were detected by DsRed immunostaining (see above).
Mouse monoclonal antibody to tubulin (Sigma); mouse monoclonal NeuN antibody (Chemicon); mouse monoclonal anti-phospho-p38 MAP kinase antibody (BD); rabbit polyclonal antibodies to the HA tag, anti-VEGFD antibodies, anti-VEGFR3 (Santa Cruz); rabbit polyclonal antibody to phosphor-CREB (Upstate-Millipore); rabbit polyclonal antibody to phosphor-CaMKII (Promega); rabbit polyclonal antibodies to phosphor-MSK1, phosphor-ATF2, phosphor-ERK, phosphor-Akt, phosphor-MKK4, phosphor-JNK, phosphor-p70, phosphor-GSKα/β (Cell Signaling). Rabbit polyclonal antibodies to DsRed (Clontech). AlexaFluor 488-, AlexaFluor 594-, and AlexaFluor 633-labled secondary antibodies were from Molecular Probes (Eugene, Oreg., USA).
A general note: A western blot detects proteins with antibodies after separation by electrophoresis.

A further data set concerns CA1 pyramidal neurons. In words: Golgi staining-based morphometric analysis of CA1 neurons after stereotaxic rAAV delivery. The class given is in vivo, C57BL/6 mice. As to conditions: CA1 basal dendrites, 2.5 weeks after viral gene delivery. The procedure: as §1
For 3D Sholl Analysis, total dendritic length and spine morphology were calculated using Object-Image freeware software with a specific set of macros (written by Dr. E. Ruthazer, McGill University, Quebec). Briefly, a z-Stack acquisition was imported, calibrated in Object-Image and manually traced. Total dendritic length was then computed. For Sholl analysis, the shell interval was set at 5 μm. All analyses were performed blind. In all in vitro experiments, for each condition, a minimum of 12 neurons from three independent preparations was analyzed. For the Golgi staining quantifications of 20 neurons for each condition from 4 different injected animals per viral construct were traced and analyzed.
Golgi impregnation was performed using a Rapid Golgi Stain Kit (FD Neuro Technologies) according to the manufacturer's protocol. […]

On to “shVEGFD: shRNA targeting mouse VEGFD mRNA (GGGCTTCAGGAGCGAACAT; SEQ ID NO: 1), expressed from rAAV vector or plasmid with U6 promoter”, for which the “mRNA levels of respective targets” value in data set [1] is reported as “reduced mRNA levels of their respective targets”. In addition, in the data set with C57BL/6 mice, the “basal exploratory activity and reaction to shock during training” value was “not different between the two groups”; the “freezing during the 24-hour test session” value was “significantly lower levels of freezing”. For the same substance, in the data set with VEGFD, the “VEGFD protein expression (immunoblot)” value was “blocked VEGFD protein expression”. In addition, the “total length of dendrites and their complexity in vivo” value in the data set on CA1 pyramidal neurons is “reduced both the total length of dendrites and their complexity”.
